Experimental data from publication PMC11272598, “RG7774 (Vicasinabin), an orally bioavailable cannabinoid receptor 2 (CB2R) agonist, decreases retinal vascular permeability, leukocyte adhesion, and ocular inflammation in animal models” (Frontiers in Pharmacology, 2024).

Key:
Assay in all cases: CEREP radioligand binding
[1] = molecular target: NK1 (h) (Homo sapiens, UniProt P25103); conditions: radioligand [^125I]-BH-SP
Source text: (§1) Supplement Table1.docx, table 3: Supplementary Table S3. RG7774 binding to non-CB1R/CB2R receptors, ion channels, transporters, and enzymes (CEREP, Celle l’Evescault, France; http://www.cerep.fr). | column: % inhibition of control SB (n = 2)

[2] = molecular target: BZD (peripheral) (Rattus norvegicus, UniProt P16257); conditions: radioligand [^3H]-PK 11195
Source text: as §1

[3] = molecular target: NK2 (h) (Homo sapiens, UniProt P21452); conditions: radioligand [^125I]-NKA
Source text: as §1

[4] = molecular target: D3 (h) (Homo sapiens, UniProt P35462); conditions: radioligand [^3H]-methyl-spiperone
Source text: as §1

[5] = molecular target: 5-HT3 (h) (Homo sapiens, UniProt P46098); conditions: radioligand [^3H]-BRL 43694
Source text: as §1

[6] = molecular target: M3 (h) (Homo sapiens, UniProt P20309); conditions: radioligand [^3H]-4-DAMP
Source text: as §1

[7] = molecular target: EP2 (h) (Homo sapiens, UniProt P43116); conditions: radioligand [^3H]-PGE2
Source text: as §1

[8] = molecular target: D4.4 (h) (Homo sapiens, UniProt P21917); conditions: radioligand [^3H]-methyl-spiperone
Source text: as §1

[9] = molecular target: M5 (h) (Homo sapiens, UniProt P08912); conditions: radioligand [^3H]-4-DAMP
Source text: as §1

[10] = test system: GABA (non-selective); conditions: radioligand [^3H]-GABA
Source text: as §1

[11] = molecular target: H2 (h) (Homo sapiens, UniProt P25021); conditions: radioligand [^125I]-APT
Source text: as §1

[12] = molecular target: H1 (h) (Homo sapiens, UniProt P35367); conditions: radioligand [^3H]-pyrilamine
Source text: as §1

[13] = test system: SKCa channel; conditions: radioligand [^125I]-apamin
Source text: as §1

[14] = molecular target: CB1 (h) (Homo sapiens, UniProt P21554); conditions: radioligand [^3H]-CP 55940
Source text: as §1

[15] = test system: PDGF; conditions: radioligand [^125I]-PDGF BB
Source text: as §1

[16] = molecular target: ETA (h) (Homo sapiens, UniProt P25101); conditions: radioligand [^125I]-endothelin-1
Source text: as §1

[17] = molecular target: ETB (h) (Homo sapiens, UniProt P24530); conditions: radioligand [^125I]-endothelin-1
Source text: as §1

[18] = molecular target: Dopamine transporter (h) (Homo sapiens, UniProt Q01959); conditions: radioligand [^3H]-BTCP
Source text: as §1

[19] = molecular target: 5-HT2C (h) (Homo sapiens, UniProt P28335); conditions: radioligand [^3H]-mesulergine
Source text: as §1

[20] = molecular target: M2 (h) (Homo sapiens, UniProt P08172); conditions: radioligand [^3H]-AF-DX 384
Source text: as §1

[21] = molecular target: Y2 (h) (Homo sapiens, UniProt P49146); conditions: radioligand [^125I]-peptide YY
Source text: as §1

[22] = molecular target: EP4 (h) (Homo sapiens, UniProt P35408); conditions: radioligand [^3H]-PGE2
Source text: as §1

[23] = molecular target: Beta 2 (h) (Homo sapiens, UniProt P07550); conditions: radioligand [^3H](-)CGP 12177
Source text: as §1

[24] = molecular target: Norepinephrine transporter (h) (Homo sapiens, UniProt P23975); conditions: radioligand [^3H]-nisoxetine
Source text: as §1

[25] = molecular target: Y1 (h) (Homo sapiens, UniProt P25929); conditions: radioligand [^125I]-peptide YY
Source text: as §1

[26] = molecular target: IP (PGI2) (h) (Homo sapiens, UniProt P43119); conditions: radioligand [^3H]-iloprost
Source text: as §1

[27] = molecular target: 5-HT7 (h) (Homo sapiens, UniProt P34969); conditions: radioligand [^3H]-LSD
Source text: as §1

[28] = molecular target: GAL1 (Homo sapiens, UniProt P47211); conditions: radioligand [^125I]-galanin
Source text: as §1

[29] = test system: TNF-α; conditions: radioligand [^125I]-TNF-α
Source text: as §1

[30] = molecular target: MT1 (ML1A) (h) (Homo sapiens, UniProt P48039); conditions: radioligand [^125I]-2-iodomelatonin
Source text: as §1

[31] = molecular target: M4 (h) (Homo sapiens, UniProt P08173); conditions: radioligand [^3H]-4-DAMP
Source text: as §1

[32] = molecular target: 5-HT6 (h) (Homo sapiens, UniProt P50406); conditions: radioligand [^3H]-LSD
Source text: as §1

[33] = test system: PCP; conditions: radioligand [^3H]-TCP
Source text: as §1

[34] = molecular target: VPAC1 (VIP1) (h) (Homo sapiens, UniProt P32241); conditions: radioligand [^125I]-VIP
Source text: as §1

[35] = test system: BB (non-selective); conditions: radioligand [^125I]-[Tyr^4]bombesin
Source text: as §1

[36] = molecular target: 5-HT1B (h) (Homo sapiens, UniProt P28222); conditions: radioligand [^125I]-CYP (+ 30 μM isoproterenol)
Source text: as §1

[37] = molecular target: 5-HT5A (h) (Homo sapiens, UniProt P47898); conditions: radioligand [^3H]-LSD
Source text: as §1

[38] = molecular target: MC4 (h) (Homo sapiens, UniProt P32245); conditions: radioligand [^125I]-NDP-α-MSH
Source text: as §1

[39] = test system: KV channel; conditions: radioligand [^125I]-α-dendrotoxin
Source text: as §1

Sequence of VPAC1 (VIP1) (h) (P32241 31-457): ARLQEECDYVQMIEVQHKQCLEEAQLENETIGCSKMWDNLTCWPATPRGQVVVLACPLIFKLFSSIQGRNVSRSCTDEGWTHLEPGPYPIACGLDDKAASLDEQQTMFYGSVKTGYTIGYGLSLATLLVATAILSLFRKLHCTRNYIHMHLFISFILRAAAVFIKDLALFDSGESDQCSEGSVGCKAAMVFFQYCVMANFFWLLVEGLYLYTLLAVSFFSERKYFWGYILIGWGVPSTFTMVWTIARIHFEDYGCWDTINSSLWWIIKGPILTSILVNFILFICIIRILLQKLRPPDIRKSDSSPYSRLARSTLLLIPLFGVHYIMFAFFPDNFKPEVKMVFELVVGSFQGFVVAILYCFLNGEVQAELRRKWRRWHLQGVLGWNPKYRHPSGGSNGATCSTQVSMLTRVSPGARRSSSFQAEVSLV
Sequence of Y2 (h) (P49146 whole entry): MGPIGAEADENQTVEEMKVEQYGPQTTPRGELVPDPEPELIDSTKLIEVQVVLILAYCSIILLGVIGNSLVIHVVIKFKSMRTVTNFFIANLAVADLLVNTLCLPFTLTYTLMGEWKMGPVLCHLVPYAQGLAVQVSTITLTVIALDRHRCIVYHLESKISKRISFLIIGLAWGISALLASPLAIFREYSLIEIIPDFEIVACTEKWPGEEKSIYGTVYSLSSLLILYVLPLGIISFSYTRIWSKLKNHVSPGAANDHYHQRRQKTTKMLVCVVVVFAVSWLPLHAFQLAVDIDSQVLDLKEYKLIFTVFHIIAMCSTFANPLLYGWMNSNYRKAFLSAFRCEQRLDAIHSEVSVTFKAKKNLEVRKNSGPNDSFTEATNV
Sequence of M3 (h) (P20309 whole entry): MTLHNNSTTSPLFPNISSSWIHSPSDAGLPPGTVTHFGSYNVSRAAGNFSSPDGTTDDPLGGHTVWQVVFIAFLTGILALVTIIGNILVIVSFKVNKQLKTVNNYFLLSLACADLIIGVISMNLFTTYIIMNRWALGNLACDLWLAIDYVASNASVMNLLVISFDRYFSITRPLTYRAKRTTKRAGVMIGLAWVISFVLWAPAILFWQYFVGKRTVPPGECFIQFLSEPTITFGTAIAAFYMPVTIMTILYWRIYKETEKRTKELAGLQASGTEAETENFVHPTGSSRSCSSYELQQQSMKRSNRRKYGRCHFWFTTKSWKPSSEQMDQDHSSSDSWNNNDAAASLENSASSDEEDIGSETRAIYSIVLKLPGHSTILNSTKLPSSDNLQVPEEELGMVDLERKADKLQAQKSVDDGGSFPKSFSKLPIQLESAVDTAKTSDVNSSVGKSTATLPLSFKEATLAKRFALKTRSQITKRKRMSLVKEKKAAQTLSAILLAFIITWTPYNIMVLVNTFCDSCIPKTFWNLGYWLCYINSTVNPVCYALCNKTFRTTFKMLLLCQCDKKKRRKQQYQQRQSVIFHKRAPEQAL
Sequence of 5-HT2C (h) (P28335 33-458): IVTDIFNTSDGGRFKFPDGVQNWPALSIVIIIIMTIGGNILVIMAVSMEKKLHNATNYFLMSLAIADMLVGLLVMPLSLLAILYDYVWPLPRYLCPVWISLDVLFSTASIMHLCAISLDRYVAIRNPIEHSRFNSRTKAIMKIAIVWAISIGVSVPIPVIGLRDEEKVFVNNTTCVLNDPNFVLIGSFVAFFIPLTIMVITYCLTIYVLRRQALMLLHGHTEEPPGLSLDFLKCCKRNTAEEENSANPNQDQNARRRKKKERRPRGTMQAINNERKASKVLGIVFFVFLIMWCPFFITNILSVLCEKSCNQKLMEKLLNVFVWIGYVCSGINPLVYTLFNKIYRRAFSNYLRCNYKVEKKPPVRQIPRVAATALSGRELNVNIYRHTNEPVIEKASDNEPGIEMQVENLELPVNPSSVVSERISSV
Sequence of Y1 (h) (P25929 whole entry): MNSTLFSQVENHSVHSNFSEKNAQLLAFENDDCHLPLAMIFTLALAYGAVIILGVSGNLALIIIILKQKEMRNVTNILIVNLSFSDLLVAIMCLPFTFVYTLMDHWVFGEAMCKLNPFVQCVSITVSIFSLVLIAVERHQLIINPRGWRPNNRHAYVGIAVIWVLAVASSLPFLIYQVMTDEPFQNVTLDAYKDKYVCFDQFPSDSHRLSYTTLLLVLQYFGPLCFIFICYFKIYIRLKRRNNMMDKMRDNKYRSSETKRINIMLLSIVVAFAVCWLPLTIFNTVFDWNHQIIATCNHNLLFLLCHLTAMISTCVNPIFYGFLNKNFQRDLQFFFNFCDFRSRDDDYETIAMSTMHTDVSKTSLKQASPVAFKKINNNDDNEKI
Sequence of Norepinephrine transporter (h) (P23975 whole entry): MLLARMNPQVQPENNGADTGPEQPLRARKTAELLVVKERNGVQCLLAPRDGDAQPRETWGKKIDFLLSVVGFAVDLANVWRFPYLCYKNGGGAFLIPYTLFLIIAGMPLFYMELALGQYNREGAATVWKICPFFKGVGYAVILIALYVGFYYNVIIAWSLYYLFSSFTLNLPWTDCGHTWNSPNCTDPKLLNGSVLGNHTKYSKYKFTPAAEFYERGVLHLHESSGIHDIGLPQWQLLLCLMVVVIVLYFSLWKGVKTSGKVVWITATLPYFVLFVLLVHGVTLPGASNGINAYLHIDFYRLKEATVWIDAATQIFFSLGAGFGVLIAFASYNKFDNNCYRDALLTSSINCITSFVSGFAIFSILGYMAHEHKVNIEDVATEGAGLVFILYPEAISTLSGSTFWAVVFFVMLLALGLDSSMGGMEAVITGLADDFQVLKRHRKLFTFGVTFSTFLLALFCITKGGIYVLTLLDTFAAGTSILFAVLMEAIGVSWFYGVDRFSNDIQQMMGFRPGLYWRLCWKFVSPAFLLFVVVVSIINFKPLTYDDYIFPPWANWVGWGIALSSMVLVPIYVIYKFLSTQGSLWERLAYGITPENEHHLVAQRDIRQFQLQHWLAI
Sequence of MC4 (h) (P32245 whole entry): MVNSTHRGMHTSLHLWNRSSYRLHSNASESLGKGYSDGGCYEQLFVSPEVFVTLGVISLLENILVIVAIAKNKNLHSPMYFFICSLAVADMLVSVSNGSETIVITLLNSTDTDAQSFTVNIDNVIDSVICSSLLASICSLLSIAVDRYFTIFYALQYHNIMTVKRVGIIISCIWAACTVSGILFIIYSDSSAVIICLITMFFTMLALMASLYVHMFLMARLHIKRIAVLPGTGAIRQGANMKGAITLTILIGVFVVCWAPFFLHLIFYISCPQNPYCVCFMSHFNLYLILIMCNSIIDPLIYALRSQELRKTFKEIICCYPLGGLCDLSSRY
Sequence of D3 (h) (P35462 whole entry): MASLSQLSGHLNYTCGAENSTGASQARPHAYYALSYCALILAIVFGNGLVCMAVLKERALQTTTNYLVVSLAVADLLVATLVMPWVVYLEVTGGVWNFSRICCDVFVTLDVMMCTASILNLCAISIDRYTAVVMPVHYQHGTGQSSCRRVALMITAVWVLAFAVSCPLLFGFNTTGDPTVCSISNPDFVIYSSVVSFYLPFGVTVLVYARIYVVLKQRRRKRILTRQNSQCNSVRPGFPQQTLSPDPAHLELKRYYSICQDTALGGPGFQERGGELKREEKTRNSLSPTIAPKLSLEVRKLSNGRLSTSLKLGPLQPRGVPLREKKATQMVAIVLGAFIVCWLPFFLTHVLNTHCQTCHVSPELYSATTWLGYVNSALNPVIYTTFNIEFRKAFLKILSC
Sequence of NK2 (h) (P21452 whole entry): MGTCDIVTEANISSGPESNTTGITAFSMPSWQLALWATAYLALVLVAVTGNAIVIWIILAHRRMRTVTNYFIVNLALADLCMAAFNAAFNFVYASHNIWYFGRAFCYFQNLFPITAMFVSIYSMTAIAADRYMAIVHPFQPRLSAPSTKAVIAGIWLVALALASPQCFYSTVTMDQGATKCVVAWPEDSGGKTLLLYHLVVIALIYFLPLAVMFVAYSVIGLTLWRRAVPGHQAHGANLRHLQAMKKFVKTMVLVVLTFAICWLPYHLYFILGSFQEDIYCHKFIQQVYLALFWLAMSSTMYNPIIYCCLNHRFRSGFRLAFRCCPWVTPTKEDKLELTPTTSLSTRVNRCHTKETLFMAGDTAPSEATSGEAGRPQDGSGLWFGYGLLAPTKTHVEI
Sequence of ETB (h) (P24530 27-442): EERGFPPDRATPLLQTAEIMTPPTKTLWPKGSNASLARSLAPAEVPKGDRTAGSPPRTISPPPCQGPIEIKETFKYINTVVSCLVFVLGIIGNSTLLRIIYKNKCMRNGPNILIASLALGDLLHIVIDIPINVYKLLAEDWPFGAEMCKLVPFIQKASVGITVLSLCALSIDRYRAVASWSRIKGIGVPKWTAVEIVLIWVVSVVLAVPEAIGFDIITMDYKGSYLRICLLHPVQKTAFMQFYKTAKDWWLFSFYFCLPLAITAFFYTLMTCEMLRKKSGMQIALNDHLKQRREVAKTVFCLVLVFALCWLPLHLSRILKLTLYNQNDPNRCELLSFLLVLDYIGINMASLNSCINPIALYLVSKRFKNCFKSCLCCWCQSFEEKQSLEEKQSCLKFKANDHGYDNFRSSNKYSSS
Sequence of M2 (h) (P08172 whole entry): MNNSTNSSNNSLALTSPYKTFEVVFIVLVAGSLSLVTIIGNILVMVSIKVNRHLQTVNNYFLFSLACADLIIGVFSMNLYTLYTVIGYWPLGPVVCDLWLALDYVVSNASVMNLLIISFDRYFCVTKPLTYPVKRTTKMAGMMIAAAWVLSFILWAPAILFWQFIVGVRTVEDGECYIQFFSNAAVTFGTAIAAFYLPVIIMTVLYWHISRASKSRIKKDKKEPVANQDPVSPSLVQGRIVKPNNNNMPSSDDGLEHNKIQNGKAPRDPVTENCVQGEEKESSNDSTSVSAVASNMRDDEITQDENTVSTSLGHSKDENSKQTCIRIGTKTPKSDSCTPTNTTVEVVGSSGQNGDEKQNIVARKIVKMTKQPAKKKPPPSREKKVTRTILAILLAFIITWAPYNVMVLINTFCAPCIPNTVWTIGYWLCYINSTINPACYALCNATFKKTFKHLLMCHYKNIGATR

`Cn1nnnc1Cn1nnc2c(N3CC[C@H](O)C3)nc(C(C)(C)C)nc21` [RG7774, (S)-1-(5-tert-butyl-3-[(1-methyl-1H-tetrazol-5-yl)methyl]-3H-[1,2,3]triazolo[4,5-d]pyrimidin-7-yl)pyrrolidin-3-ol] was tested, and the “% inhibition of control SB (n = 2)” value [1] was “–3.7%”, the “% inhibition of control SB (n = 2)” value [2] was “–12.0%” and the “% inhibition of control SB (n = 2)” value [3] was “–5.5%”. The “% inhibition of control SB (n = 2)” value [4] was “–0.3%”, the “% inhibition of control SB (n = 2)” value [5] was 1.4% and the “% inhibition of control SB (n = 2)” value [6] was “–6.7%”. The “% inhibition of control SB (n = 2)” value [7] was “–13.4%”, the “% inhibition of control SB (n = 2)” value [8] was 3.7% and the “% inhibition of control SB (n = 2)” value [9] was “–2.7%”. The “% inhibition of control SB (n = 2)” value [10] was “–16.1%”, the “% inhibition of control SB (n = 2)” value [11] was “–2.3%” and the “% inhibition of control SB (n = 2)” value [12] was “–8.8%”. The “% inhibition of control SB (n = 2)” value [13] was 8.6%, the “% inhibition of control SB (n = 2)” value [14] was “–0.8%” and the “% inhibition of control SB (n = 2)” value [15] was “–5.6%”. For the same compound, the “% inhibition of control SB (n = 2)” value [16] was “–10.4%”, the “% inhibition of control SB (n = 2)” value [17] was “–8.1%” and the “% inhibition of control SB (n = 2)” value [18] was 4.9%. The “% inhibition of control SB (n = 2)” value [19] was 2.7%, the “% inhibition of control SB (n = 2)” value [20] was “–8.7%” and the “% inhibition of control SB (n = 2)” value [21] was “–3.6%”. For the same compound, the “% inhibition of control SB (n = 2)” value [22] was “–8.7%”, the “% inhibition of control SB (n = 2)” value [23] was “–1.3%” and the “% inhibition of control SB (n = 2)” value [24] was 5.4%. For the same compound, the “% inhibition of control SB (n = 2)” value [25] was “–5.5%”, the “% inhibition of control SB (n = 2)” value [26] was “–3.8%” and the “% inhibition of control SB (n = 2)” value [27] was 3.9%. For the same compound, the “% inhibition of control SB (n = 2)” value [28] was “–9.1%”, the “% inhibition of control SB (n = 2)” value [29] was 4.9% and the “% inhibition of control SB (n = 2)” value [30] was 7.9%. For the same compound, the “% inhibition of control SB (n = 2)” value [31] was “–8.9%”, the “% inhibition of control SB (n = 2)” value [32] was 3.5% and the “% inhibition of control SB (n = 2)” value [33] was “–4.4%”. The “% inhibition of control SB (n = 2)” value [34] was 7.8%, the “% inhibition of control SB (n = 2)” value [35] was “–9.5%” and the “% inhibition of control SB (n = 2)” value [36] was “–10.6%”. The “% inhibition of control SB (n = 2)” value [37] was 2.2%, the “% inhibition of control SB (n = 2)” value [38] was “–14.5%” and the “% inhibition of control SB (n = 2)” value [39] was “–5.7%”.
